{"source": "patent US5420135A", "about": "“Substituted quinoline derivatives” (Smith Kline & French Laboratories Limited, priority 1989, dated 1995)", "tested_on": "isolated rat osteoclasts", "assay": "Bone resorption by isolated rat osteoclasts on cortical bone slices", "type": "cell-based", "details": "Osteoclast, 18 hours, Mean ± SEM, n = 12, control 100 ± 27", "method": "Bone resorption was measured by the actions of isolated rat osteoclasts on cortical bone slices (Zaidi et al. Quarterly Journal of Experimental Physiology 1988 73:471-485). Newborn Wistar rats were killed by decapitation and their femora and tibiae removed. Osteoclasts were mechanically disaggregated by curetting the bones into medium followed by agitation with a pipette. Osteoclasts were separated from other cells by sedimentation onto bone slices (15 minutes, 37°) after which the slices were removed and gently washed. The bone slices were then incubated in the presence of test compounds (37°, 10% humidified CO2, 18 hours) and fixed with glutaraldehyde. The degree of bone resorption was then assessed by the area of erosions produced by the osteoclasts using scanning electron microscopy. Data were meaned from measurements of 6 bone slices in each of two independent experiments.\nTest compounds were dissolved in ethanol which was also added to control incubations (1%) in the absence of compound."}
{"smiles": "Cc1ccccc1-n1nnc2cnc3ccccc3c21", "note": "[Example 2, 1-(2-Methylphenyl)triazolo[4,5-c]quinoline]", "values": [{"measurement": "activity at 10 µM", "setting": "Conc. 10 μM", "value": "49 ± 20", "unit": "%"}, {"measurement": "activity at 100 µM", "setting": "Conc. 100 μM", "value": 0, "unit": "%"}]}
